“Also recorded” adds a separate entry of the source.
Tests used:
[1] = system: human embryonic kidney cells (HEK293); assay: Cytotoxicity against HEK293 cells (CellTitre-Glo); type: cell-based; conditions: 100 μM, HEK293, 24 hours
Method: A sample compound was incubated at 100 μM with human embryonic kidney cells (HEK293) in Greiner 384 cell star plates for 24 hours before adding CellTitre-Glo® (Promega), an indicator of cell viability giving a luminescent output. In this assay, compounds showing greater than 40% cytotoxicity over two test runs at 100 μM are deemed to have shown cytotoxicity.

P. falciparum = assay: Plasmodium falciparum testing: uptake by infected and non-infected red blood cells; type: cell-based; conditions: 25 μM, 45 minutes, 37° C., synchronised stage and mix-stage cultures
Method: Compounds 1, 5, 9, 10 and 11 were tested for uptake in both synchronised stage and mix-stage cultures at 25 μM concentrations.

Escherichia coli = assay: Bacteria testing: uptake in Escherichia coli; conditions: FIG. 2(e); 25 μM, 45 minutes, 37° C.
Method: (§1) Bacteria cultured by inoculating LB media (Thermo-Fisher) with the desired bacteria and incubating overnight at 37° C. under an atmosphere of air. The OD600 was then measured and the concentration of bacteria calculated from this. The cultures were then diluted appropriately to give a concentration of 2×10^5 cells per mL. 1 mL of this culture was placed in a 5 mL centrifuge tube then centrifuged at 13,000 rpm for 5 minutes. The supernatant was removed and replaced with 1 mL of 25 μM solution of compound in media. The cultures were incubated for 45 minutes at 37° C. The cultures were centrifuged as before, the supernatant removed and the pellet resuspended in 1 mL of PBS. The cells were washed in this manner twice more. After the final washing the pellet was resuspended in 35 μL of water and spotted onto a slide. The slide was then protected with a coverslide before the images were analysed using an Olympus UV microscope system with a Leica imaging analysis software with a FITC fluorescent filter.

T. annulata = assay: Theileria annulata testing: uptake; type: cell-based; conditions: 1 hour, 37° C.
Method: T. annulata were cultured using RPMI 1640 with 10% Albumax II (Thermo-Fisher) serum. A standard hemocytometer was used to calculate the concentration of cells in the parent culture. […] For each compound and concentration to be tested, 2 mL of the culture were centrifuged at 1,000 rpm for 5 minutes. The medium was removed before the cells were resuspended in 950 μL of complete medium containing the compound to be tested at the desired concentration. This was prepared from a 100 mM stock solution of compound in DMSO. Once the cells were resuspended they were transferred to a 5 well plate (1 mL capacity per well). They were then incubated for 1 hour at 37° C. in an atmosphere of 5% CO2 in air. After the incubations were complete the contents of each well were transferred to a 10 mL centrifuge tube. Cold RPMI 1640 (Thermofisher) or HBSS added to obtain a volume of 5 mL. The suspension was then centrifuged at 1,000 rpm and at 4° C. for 5 minutes. […] After the final washing the pellet of cells was resuspended in a minimum amount of RPMI 1640 and then spotted onto a glass slide. The slide was then covered with a cover slip and analysed using Olympus BX60 UV microscope system with a Spot RT3 camera and Spot Image software with a FITC fluorescent filter.

L. passim strain PRA-403 = assay: Lotmaria passim parasite uptake test; type: cell-based; conditions: 1 μM and 100 μM, room temperature, 45 min
Method: 100 mM stock solutions of BODIPY derivatives were prepared with dimethylsulfoxide (DMSO). L passim strain PRA-403 (ATCC) was cultured in modified medium for C. bombi (Tognazzo et al.). The parasite culture was centrifuged, supernatant was removed and 500 μL of L passim medium with compound (final concentration 500, 100, 10 or 1 μM for BODIPY derivatives) or DMSO (0.1%) control was added. Incubated for 45 min at room temperature.
Uptake tests were performed at 1 μM and 100 μM final concentration of CJ-BODIPY derivatives. After incubation at room temperature for 45 min, fluorescence intensities were evaluated using a microplate reader.

B. bovis Texas strain = assay: Short-term uptake test in B. bovis infected RBCs (confocal microscopy)
Method: The parasite culture was centrifuged and washed once with GIT medium. RBC's were pellet down, and 20 μl infected RBC mixture (10 μl packed infected RBC+10 μl GIT) was prepared. Then, 180 μl GIT medium with compound the compound to be evaluated (final concentration 25 μM for BODIPY derivatives and 100 μM for phiLOV derivatives) or DMSO (0.1%)/PBS control was added. The samples were incubated for 45 min at 37° C. (Samples were stained 1 μg/mL diluted Hoechst 33342 in GIT medium). After incubation, the samples were centrifuged and the pellet was washed with GIT medium (3×). A final solution of 50% haematocrit infected RBC mixture was transferred to slides to be observed by confocal laser microscopy (Nikon A1).
Uptake experiments were performed by incubating the parasite (˜5% Parasitized Erythrocytes (PPE)) with each derivative at 25 μM and 37° C. for 45 min. After incubation, the fluorescence intensities were calculated from confocal microscope images.
The phiLOV double mutant (R475G, K476C) was used to generate derivatives P11, P1, P8, and P3 which were tested for uptake in B. bovis Texas strain using phiLOV as a control. The derivatives and the control were incubated at 100 μM and 37° C. for 45 min. After incubation, the samples were analysed under confocal microscopy using Hoeschst 33342 (Thermofisher) as co-stain.

Enterococcus faecalis = assay: Bacteria testing: uptake in Enterococcus faecalis; conditions: FIG. 2(f); 25 μM, 45 minutes, 37° C.
Method: as §1

T. brucei = assay: Trypanosoma brucei testing: uptake; type: cell-based; conditions: 10-25 μM, 45 minutes, 37° C.
Staphylococcus aureus = assay: Bacteria testing: uptake in Staphylococcus aureus; conditions: FIG. 2(g); 25 μM, 45 minutes, 37° C.
Method: as §1

C. elegans = assay: Conjugate uptake in C. elegans (dye and praziquantel conjugates, fluorescence microscopy); type: in vivo, Caenorhabditis elegans; conditions: for uptake: location of fluorescence in C. elegans: 50 μM
Method: Nematode Growth Media (NGM) plates containing C. elegans were washed with 1.0-1.5 mL of standard M9 buffer and the washes were collected in an Eppendorf tube. The liquid containing the C. elegans was then spun for 1 min at room temperature at 10,000 rpm. The supernatant was removed, and fresh M9 buffer was added (500 μL) to generate a new stock solution of M9 buffer containing the C. elegans.
A C. elegans suspension (100 μL) was added a defined amount of M9 buffer (determined by the final desired concentration of compound to be tested: 399 μL in the case of the BODIPY tagged derivatives) contained within a separate Eppendorf tube. To this was then added a 25 mM solution of the compound in DMSO (1 μL). The resulting suspension was mixed using a vortex instrument.
The resulting mixture was incubated at room temperature for 2 to 4 h. in the dark (using aluminium foil to screen the tube, which was also stored in a cabinet).
Other samples were incubated overnight. Here, OP50 bacteria (3 μL) were added to the worms for feeding purposes, and the worms were kept in the dark at 20° C.
After the incubation, the tube contents were mixed gently by hand (typically by simple rotation of the tube), so as to achieve a homogenous suspension. A sample of the suspension (250 μL) was taken and mixed with M9 buffer (500 μL). The resulting suspension was placed in a centrifuge and spun at room temperature at 10,000 rpm for 1 min. The supernatant was removed, and the washing process was repeated twice more, each time using further quantities of fresh M9 buffer (500 μL each time). After the final washing sufficient supernatant was removed so as to leave a final sample volume of approximate 30 μL.
A 1.5% agarose solution in water was pre-warmed for 60 to 90 s. in a standard household style microwave (set to Power 4). Two drops of this solution was removed and placed on a glass slide. The glass slide was covered with a second glass slide. After 1 min., the slides were slid carefully apart, with the agarose remaining on one of the slides. Onto this slide was placed an aliquot of the final C. elegans solution (15 to 20 μL). To this was added a 20 mM sodium azide solution (5 μL) to inhibit nematode mobility. Vaseline was then placed around the agarose area before replacing the second slide. The slides were not pressed together.
The nematodes were then analysed using a Zeiss Axiskop 2 Plus microscope with a Hamamatsu Orca-ER (CA 742-95) camera. The images were resolved using OpenLab on a Mac operating system.
Compounds 1-11 were evaluated after 3 h and overnight incubation at a 50 μM concentration using the general uptake protocol described for C. elegans.
In order to compare the ability of a conjugate to improve the uptake of the drug praziquantel, two praziquantel derivatives were generated. Praziquantel was tagged with a BODIPY fluorescent tag (compound 12) and incorporated into a conjugate of the invention (compound 13). Compounds 12 and 13 were evaluated at a concentration of 50 μM using the C. elegans uptake protocol described above for compounds 1-11. Microscopic readings were taken after 3, 24 and 72 h.

[2] = system: Gram-negative and Gram-positive bacteria; assay: Bacteria testing: uptake in bacterial cultures; type: cell-based; conditions: 25 μM, 45 minutes, 37° C.
Theileria parva = assay: Uptake in erythrocyte infected with Theileria parva (FIG. 2(b)); type: cell-based

**Q.** Which results are given for CC1(C)OCC(C)(C)C(C(=O)N/C=C/C(=O)NCCCCCO[Si](c2ccccc2)(c2ccccc2)C(C)(C)C)O1 (stereo not shown)?
**A.** outcome in the cytotoxicity screen [1]: inactive in the screen; cytotoxicity ([1]; CellTitre-Glo, greater than 40% deemed cytotoxic): 3.7±0.6%

**Q.** How did the “uptake by infected and non-infected red blood cells” value (P. falciparum) turn out when CC1=CC(C)=[N+]2C1=Cc1ccc(CCCn3cc(CCNC(=O)/C=C/NC(=O)[C@H](O)C(C)(C)CO)nn3)n1[B-]2(F)F [Compound 5, (R,E)-N-((((3-[4,4-Difluoro-5,7-dimethyl-4-bora-3a,4a-diaza-s-indacene-3-yl]propyl)-1H-1,2,3-triazol-4-yl)ethylamino)-3-oxoprop-1-enyl)-2,4-dihydroxy-3,3-dimethylbutanamide] was run?
**A.** selectively taken up by infected red blood cells; also recorded: accumulated within the parasite itself; also recorded: Non-infected erythrocytes do not take up the conjugate

**Q.** What about the “uptake by Escherichia coli” value (Escherichia coli) of the same compound?
**A.** uptake of the conjugate by the organism

**Q.** And the “uptake in T. annulata” value (T. annulata)?
**A.** taken up by T. annulata; also recorded: selectively accumulated within the intracellular parasite

**Q.** What about the “uptake in L. passim (fluorescence intensity, microplate reader)” value (L. passim strain PRA-403) of the same compound?
**A.** relatively low uptake

**Q.** What about the “uptake compared to compound 1 (% less)” value (B. bovis Texas strain; 25 μM, 37° C., 45 min, ~5% PPE) of the same compound?
**A.** 30%

**Q.** What about the “uptake by non-infected erythrocytes (B. bovis culture)” value (B. bovis Texas strain; FIG. 2(a)) of the same compound?
**A.** Non-infected erythrocytes do not take up the conjugate

**Q.** And the “uptake by Enterococcus faecalis” value (Enterococcus faecalis)?
**A.** uptake of the conjugate by the organism

**Q.** What about the “uptake in T. brucei” value (T. brucei) of the same compound?
**A.** taken up by T. brucei and forms small vesicles all over the trypanosome body, whilst not accumulating neither in the lysosome nor in the nucleus, but rather in a vesicle between the flagellar pocket and the lysosome; also recorded: taken up by T. brucei and forms small vesicles all over the trypanosome body

**Q.** What about the “uptake by Staphylococcus aureus” value (Staphylococcus aureus) of the same compound?
**A.** uptake of the conjugate by the organism

**Q.** And the “uptake: location of fluorescence in C. elegans” value (C. elegans; 3 h incubation)?
**A.** small amounts of compound 5 were present in the gut cells, and the gut lumen of the larval stages, as well as in the pharynx, gut lumen and gut cells of adult nematodes; also recorded: not detected in the embryos

**Q.** What about the “uptake: location of fluorescence in C. elegans” value (C. elegans; 20 h / overnight incubation) of the same compound?
**A.** fluorescence remained in the pharynx, gut cells and gut lumen of both the larval and adult stages; also recorded: Fluorescence was also detected in the early stage of egg development, but not in the embryos

**Q.** What about the “distribution in C. elegans” value (C. elegans; FIG. 2(h), fluorescence microscopy) of the same compound?
**A.** localised with the digestive track of C. elegans

**Q.** What about the “uptake in bacterial cultures” value [2] of the same compound?
**A.** Uptake was seen both in the case of Gram-negative and Gram-positive bacteria

**Q.** And the “accumulation in Theileria parva infected erythrocyte” value (Theileria parva)?
**A.** seen to accumulate within the parasite

Reference: patent publication US20220054658A1, “CONJUGATES” (Transfection Holdings Limited, priority 2018, published 2022)
